Data: patent publication US4892875A, “Substituted heterocyclylalkyl esters of 1,4-dihydropyridine-3,5-dicarboxylic acids” (Takeda Chemical Industries, Ltd., priority 1982, dated 1990)
Counter-ions that a name gives are not always drawn. Like-named read-outs stand apart in the source and are kept apart here.

Experiments:
[1] = Acute toxicity in male and female Wistar rats; settings: in vivo; oral; male rat; observed 7 days
Procedure: 2-(4-Benzhydryl-1-piperazinyl)ethyl methyl 2,6-dimethyl-4-(3-nitrophenyl)-1,4-dihydropyridine-3,5-dicarboxylate dihydrochloride was suspended in a 5% solution of gum arabic and orally administered to male and female Wistar rats aged 5 weeks (body weight 105 to 139 g) in a dose of 62.5, 125, 250, 500 and 1000 mg/kg (in groups of 4 to 8) and each animal so treated was observed over a period of 7 days.

[2] = test system: spontaneously hypertensive rats; assay: Renal blood flow increasing effect (renal circulation improving effect) in anesthetized male spontaneously hypertensive rats; assay type: in vivo; settings: Rattus norvegicus
Procedure: Male spontaneously hypertensive rats aged 10 to 11 weeks (3 to 6 animals per group) were anesthetized with pentobarbital and used. After laparotomy, an electromagnetic flowmeter probe (Narco) was fitted to the left renal artery and the renal blood flow was continuously recorded on a polygraph (Sanei Sokki K.K.). […] Each test compound was dissolved in polyethylene glycol 400 to prepare a stock solution. This stock solution was diluted five-fold with physiological saline and the dilution was intravenously administered to rats in a volume of 0.5 ml/kg body weight. The dosage was 0.01 mg/kg for all test compounds. The renal blood flow was measured over a period of 40 minutes following the medication. The values shown are: [formula]

[3] = test system: spontaneously hypertensive rats; assay: Antihypertensive action (systolic blood pressure, caudal artery) in male spontaneously hypertensive rats; assay type: in vivo, rat; settings: 10 mg/kg oral; for Change in blood pressure 1 hr. after treatment / Change in blood pressure 5 hrs. after treatment: after minus before medication, * P < 0.05 vs control; for Duration of antihypertensive effect: measured 1, 5, 8 and 24 hours after administration
Procedure: Male spontaneously hypertensive rats aged 10 to 11 weeks were used (in groups of 3 to 6 individuals). […] Each test compound was suspended in a 5% solution of gum arabic and orally administered. The dosage was 10 mg/kg for all compounds. Animals in a control group was given the above solution of gum arabic only.

[4] = 1 min, 0.01 mg/kg intravenous, 1 minute, * P < 0.05 vs control, read-out: Change in renal blood flow, 1 Minute after medication
[5] = 20 min, 0.01 mg/kg intravenous, 20 minutes, * P < 0.05 vs control, read-out: Change in renal blood flow, 20 Minutes after medication
[6] = 40 min, 0.01 mg/kg intravenous, 40 minutes, * P < 0.05 vs control, read-out: Change in renal blood flow, 40 Minutes after medication

Row | Structure (SMILES) | LD50 at 168 h [1] | change in vivo at 0.01 mg/kg [2, 4] | change in vivo at 0.01 mg/kg [2, 5] | change in vivo at 0.01 mg/kg [2, 6] | Change in blood pressure 1 hr. after treatment [3] | Change in blood pressure 5 hrs. after treatment [3] | Duration of antihypertensive effect [3] | change in vivo at 0.01 mg/kg ([2]; iv, 1 min, read-out: Change in renal blood flow, 1 Minute after medication) | change in vivo at 0.01 mg/kg ([2]; iv, 20 min, read-out: Change in renal blood flow, 20 Minutes after medication) | change in vivo at 0.01 mg/kg ([2]; iv, 40 min, read-out: Change in renal blood flow, 40 Minutes after medication)
1 | COC(=O)C1=C(C)NC(C)=C(C(=O)OCCN2CCN(C(c3ccccc3)c3ccccc3)CC2)C1c1cccc([N+](=O)[O-])c1.Cl.Cl (stereo not shown) [2-(4-Benzhydryl-1-piperazinyl)ethyl methyl 2,6-dimethyl-4-(3-nitrophenyl)-1,4-dihydropyridine-3,5-dicarboxylate dihydrochloride] | 250 to 500 mg/kg |  |  |  |  |  |  |  |  | 
2 | COC(=O)C1=C(C)NC(C)=C(C(=O)OCCN2CCN(C(c3ccccc3)c3ccccc3)CC2)C1c1cccc(Cl)c1Cl (stereo not shown) [Example 6, 2-(4-benzhydryl-1-piperazinyl)ethyl methyl 4-(2,3-dichlorophenyl)-2,6-dimethyl-1,4-dihydropyridine-3,5-dicarboxylate] |  | 4.5% | 7.5% | 6% | -30 mmHg | -33 mmHg | 8 to 24 h |  |  | 
3 | COC(=O)C1=C(C)NC(C)=C(C(=O)OCCN2CCN(C(c3ccc(F)cc3)c3ccc(F)cc3)CC2)C1c1cccc([N+](=O)[O-])c1 (stereo not shown) [Example 8, 2-[4-(4,4'-difluorobenzhydryl)-1-piperazinyl]ethyl methyl 2,6-dimethyl-4-(3-nitrophenyl)-1,4-dihydropyridine-3,5-dicarboxylate] |  | 5.7% | 6.4% | 9.7% | -96 mmHg | -98 mmHg | > 24 h |  |  | 
4 | COC(=O)C1=C(C)NC(C)=C(C(=O)OCCN2CCN(C(c3ccc(OC)cc3)c3ccc(OC)cc3)CC2)C1c1cccc([N+](=O)[O-])c1 (stereo not shown) [Example 10, 2-[4-(4,4'-dimethoxybenzhydryl)-1-piperazinyl]ethyl methyl 2,6-dimethyl-4-(3-nitrophenyl)-1,4-dihydropyridine-3,5-dicarboxylate] |  | 6.9% | 8.3% | 6.8% | -88 mmHg | -57 mmHg | 8 to 24 h |  |  | 
5 | COC(=O)C1=C(C)NC(C)=C(C(=O)OCCN2CCCN(C(c3ccccc3)c3ccccc3)CC2)C1c1cccc([N+](=O)[O-])c1 (stereo not shown) [Example 15, 2-(4-benzhydrylhomopiperazin-1-yl)-ethyl methyl 2,6-dimethyl-4-(3-nitrophenyl)-1,4-dihydropyridine-3,5-dicarboxylate] |  | 4.2% | 4.2% | 2.9% | -38 mmHg | -18 mmHg | 5 to 8 h |  |  | 
6 | COC(=O)C1=C(C)NC(C)=C(C(=O)OCCN2CCN(c3cccc(C(F)(F)F)c3)CC2)C1c1cccc([N+](=O)[O-])c1 (stereo not shown) [Example 18, methyl 2-[4-(3-trifluoromethylphenyl)-1-piperazinyl]ethyl 2,6-dimethyl-4-(3-nitrophenyl)-1,4-dihydropyridine-3,5-dicarboxylate] |  | 8.8% | 4.2% | 5% | -68 mmHg | -43 mmHg | 8 to 24 h |  |  | 
7 | COC(=O)C1=C(C)NC(C)=C(C(=O)OCCN2CCN(C(c3ccccc3)c3ccccc3)CC2)C1c1cccc(Cl)c1 (stereo not shown) [Example 22, 2-(4-benzhydryl-1-piperazinyl)ethyl methyl 4-(3-chlorophenyl)-2,6-dimethyl-1,4-dihydropyridine-3,5-dicarboxylate] |  | 7.5% | 7.8% | 9.6% | -97 mmHg | -83 mmHg | 8 to 24 h |  |  | 
8 | COC(=O)C1=C(C)NC(C)=C(C(=O)OCCN2CCN(C(c3ccccc3)c3ccccc3)CC2)C1c1cccc(C(F)(F)F)c1 (stereo not shown) [Example 23, 2-(4-benzhydryl-1-piperazinyl)ethyl methyl 2,6-dimethyl-4-(3-trifluoromethylphenyl)-1,4-dihydropyridine-3,5-dicarboxylate] |  | 6.7% | 9.7% | 10.9% | -59 mmHg | -66 mmHg | 8 to 24 h |  |  | 
9 | CCOC(=O)C1=C(C)NC(C)=C(C(=O)OCCN2CCN(C(c3ccc(C)cc3)c3ccc(C)cc3)CC2)C1c1cccc([N+](=O)[O-])c1 (stereo not shown) [Example 31, 2-[4-(4,4'-dimethylbenzhydryl)-1-piperazinyl]ethyl ethyl 2,6-dimethyl-4-(3-nitrophenyl)-1,4-dihydropyridine-3,5-dicarboxylate] |  | 3.3% | 4.3% | 1.8% | -77 mmHg | -77 mmHg | 8 to 24 h |  |  | 
10 | COC(=O)C1=C(C)NC(C)=C(C(=O)OCCCN2CCN(C(c3ccccc3)c3ccccc3)CC2)C1c1cccc([N+](=O)[O-])c1 (stereo not shown) [Example 37, 3-(4-benzhydryl-1-piperazinyl)propyl methyl 2,6-dimethyl-4-(3-nitrophenyl)-1,4-dihydropyridine-3,5-dicarboxylate] |  | 8.5% | 10.8% | 11.3% | -63 mmHg | -30 mmHg | ca. 8 hrs. |  |  | 
11 | COC(=O)C1=C(C)NC(C)=C(C(=O)OCCN(C)Cc2ccccc2)C1c1cccc([N+](=O)[O-])c1 (stereo not shown) [Nicardipine.HCl, reference compound] |  | -15% | -1.9% | 0.3% | -38 mmHg | +2 mmHg | < 5 h |  |  | 
12 | COC(=O)C1=C(C)NC(C)=C(C(=O)OC)C1c1ccccc1[N+](=O)[O-] [Nifedipine, reference compound] |  |  |  |  | -45 mmHg | -3 mmHg | < 5 h | 3% | 3.1% | 2.2%
